Source: US20220096509A1, “Reformulating Hospital Gentamicin to reduce the risk of hearing loss while maintaining antimicrobial activity” (priority 2019, published 2022)
Values joined by “and” are separate entries in the source; they are usually repeats but may differ in a detail not shown here. Identical values can stand only once. “Also recorded” adds a separate entry of the source. Like-named read-outs stand apart in the source and are kept apart here.

Tests used:
[1] = test system: rat cochlear hair cells; conditions: for EC50: read-out: EC50±SE, hair cell survival (ototoxicity)
[2] = test system: S. aureus; assay type: cell-based; conditions: for antimicrobial potency relative to hospital bottle: Mann Whitney U Test
Text: (§1) The colors represent different species, the numbers in the columns refer to the number of individual strains inhibited, where black=S. aureus, grey=E. coli, blue=K. pneumoniae, white=P. aeruginosa. […] (2B) The MIC values for each strain (diamond symbols) split by species, where Hospital=red, C1=orange, blue=C1a, cyan=C2, green=C2a, purple=C2b (grey scale only). Filled symbols indicate strains with antimicrobial resistance. The box indicates the 25-75 percentiles, stars indicate geometric means, *=P<0.05, **=P<0.01 tested using Mann Whitney U Non-Parametric analysis. […] (2C) The antimicrobial breadths of the impurities relative to a hospital bottle. […] (2D) The MIC values for each strain split by species.
(§2) The antimicrobial activity of the main components of gentamicin were studied relative to a single hospital bottle (gentamicin mixture) from Stanford University Hospital.

[3] = test system: P. aeruginosa; assay: MIC against P. aeruginosa strains; assay type: cell-based
Text: as §1, §2

[4] = test system: S. aureus, E. coli, K. pneumoniae, P. aeruginosa strains; assay: Antimicrobial breadth and potency (MIC) across 40 bacterial strains; assay type: cell-based
Text: as §1, §2

[5] = test system: rat cochlear hair cells; assay: tissue or blood; conditions: read-out: EC50±SE, hair cell survival (ototoxicity)
[6] = test system: E. coli; assay: MIC against E. coli strains; assay type: cell-based; conditions: Mann Whitney U Test
Text: (§3) […]. The colors represent different species, the numbers in the columns refer to the number of individual strains inhibited, where black=S. aureus, grey=E. coli, blue=K. pneumoniae, white=P. aeruginosa. The hospital bottle inhibits 35/40 strains tested, with the C-components inhibiting 31-35 strains. (2B) The MIC values for each strain (diamond symbols) split by species, where Hospital=red, C1=orange, blue=C1a, cyan=C2, green=C2a, purple=C2b (grey scale only). Filled symbols indicate strains with antimicrobial resistance. The box indicates the 25-75 percentiles, stars indicate geometric means, *=P<0.05, **=P<0.01 tested using Mann Whitney U Non-Parametric analysis. […] There are also some differences between individual components in S. aureus and P. aeruginosa. (2C) The antimicrobial breadths of the impurities relative to a hospital bottle. The hospital bottle inhibits 35/40 strains tested, with the impurities Gent B, Gent A, Gent X and G418 inhibiting 15-21 strains. One impurity, Sisomicin inhibited 35/40 strains. (2D) The MIC values for each strain split by species. […].

[7] = test system: K. pneumoniae; assay: MIC against K. pneumoniae strains; assay type: cell-based; conditions: Mann Whitney U Test
Text: as §3

[8] = mid-apical region of the cochlea, n>5 per data point, logarithmic function best fit

Compound: CNC[C@@H]1CC[C@@H](N)[C@@H](O[C@H]2[C@H](O)[C@@H](O[C@H]3OC[C@](C)(O)[C@H](NC)[C@H]3O)[C@H](N)C[C@@H]2N)O1 [C2b, gentamicin C2b]
- ototoxicity relative to hospital bottle [1]: less ototoxic than the hospital bottle
- EC50 [1, 8]: 1200 ± 114 µM

Compound: gentamicin C1a
- Geomean MIC [2]: 0.29 µg/mL
- antimicrobial potency relative to C1 component [2]: more antimicrobial than the C1 component
- EC50 [1]: 816 ± 18 µM
- Geomean MIC [3]: 0.71 µg/mL
- antimicrobial potency relative to C1 component [3]: more antimicrobial than the C1 component

Compound: CN[C@@H]1[C@@H](O)[C@@H](O[C@@H]2[C@@H](O)[C@H](O[C@H]3O[C@H]([C@@H](C)NC)CC[C@H]3N)[C@@H](N)C[C@H]2N)OC[C@]1(C)O [C1, gentamicin C1]
- antimicrobial potency relative to hospital bottle ([2]; S. aureus): less potent than the hospital bottle; also recorded: less antimicrobial than the hospital bottle
- Geomean MIC ([2]; S. aureus, n=10 strains): 0.53 µg/mL and 0.54 µg/mL
- antimicrobial potency among the components [4]: lowest antimicrobial potency
- ototoxicity relative to hospital bottle [1]: not significantly different from the hospital bottle
- EC50 [1, 8]: 755 ± 60 µM
- Geomean MIC ([3]; P. aeruginosa, n≥8 strains): 1.52 µg/mL

Compound: CN[C@@H]1[C@@H](O)[C@@H](O[C@@H]2[C@@H](O)[C@H](O[C@H]3O[C@H]([C@H](C)N)CC[C@H]3N)[C@@H](N)C[C@H]2N)OC[C@]1(C)O [C2a, gentamicin C2a]
- ototoxicity relative to hospital bottle [1]: not significantly different from the hospital bottle
- EC50 [1, 8]: 614 ± 69 µM

Compound: CN[C@@H]1[C@@H](O)[C@@H](O[C@@H]2[C@@H](O)[C@H](O[C@H]3OC(CN)=CC[C@H]3N)[C@@H](N)C[C@H]2N)OC[C@]1(C)O [Sisomicin]
- EC50 [5]: 212 ± 7 µM
- antimicrobial potency relative to hospital bottle ([2]; S. aureus): more potent than the hospital
- number of strains inhibited (antimicrobial breadth) ([4]; 40 strains tested, breadth defined as MIC value ≤4μg/ml): 35/40
- antimicrobial potency relative to hospital bottle [6]: equi-potent to the hospital
- ototoxicity relative to hospital bottle [1]: more ototoxic than the hospital
- antimicrobial potency relative to hospital bottle [7]: equi-potent to the hospital
- antimicrobial potency relative to hospital bottle ([3]; P. aeruginosa, Mann Whitney U Test): more potent than the hospital

Compound: CN[C@@H]1[C@@H](O)[C@@H](O[C@@H]2[C@@H](O)[C@H](O[C@H]3O[C@H]([C@@H](C)O)[C@@H](O)[C@H](O)[C@H]3N)[C@@H](N)C[C@H]2N)OC[C@]1(C)O [G418, geneticin, reference compound]
- ototoxicity relative to hospital bottle [1]: more ototoxic at lower doses than the hospital but requires a higher dose to kill all hair cells than the hospital

Compound: CN[C@@H]1[C@@H](O)[C@@H](O[C@@H]2[C@@H](O)[C@H](O[C@H]3O[C@H](CN)[C@@H](O)[C@H](O)[C@H]3O)[C@@H](N)C[C@H]2N)OC[C@]1(C)O [Gent B]
- antimicrobial potency relative to hospital bottle ([4]; all species tested, P<0.05, n≥8 strains): significantly less potent than the hospital bottle

Compound: CN[C@@H]1[C@@H](O)[C@@H](O[C@@H]2[C@@H](O)[C@H](O[C@H]3O[C@H]([C@@H](C)N)CC[C@H]3N)[C@@H](N)C[C@H]2N)OC[C@]1(C)O [C2, gentamicin C2]
- ototoxicity among the drug components [1]: most ototoxic component
- EC50 [1, 8]: 402 ± 38 µM
